How the values were obtained:
Assay in all cases: Test E preemergence
lambsquarters = type: in vivo, Chenopodium album; conditions: for Lambsquarters plant response rating: scale 0 to 100 (0 no effect, 100 complete control); for Plant response rating, Lambsquarters: scale 0 to 100, 0 no effect, 100 complete control
From the text: (§1) Seeds of plant species selected from corn (Zea mays), soybean (Glycine max), velvetleaf (Abutilon theophrasti), lambsquarters (Chenopodium album), wild poinsettia (Euphorbia heterophylla), palmer pigweed (Amaranthus palmeri), waterhemp (common waterhemp, Amaranthus rudis), surinam grass (Brachiaria decumbens), large (Lg) crabgrass (Digitaria sanguinalis), Brazilian crabgrass (Digitaria horizontalis), fall panicum (Panicum dichotomiflorum), giant foxtail (Setaria faberii), green foxtail (Setaria viridis), goosegrass (Eleusine indica), johnsongrass (Sorghum halepense), ragweed (common ragweed, Ambrosia elatior), barnyardgrass (Echinochloa crus-galli), sandbur (southern sandbur, Cenchrus echinatus), arrowleaf sida (Sida rhombifolia), Italian ryegrass (Lolium multiflorum), dayflower (Virginia (VA) dayflower, Commelina virginica), field bindweed (Convolvulus arvensis), morningglory (Ipomoea coccinea), nightshade (eastern black nightshade, Solanum ptycanthum), kochia (Kochia scoparia), yellow nutsedge (Cyperus esculentus), cocklebur (common cocklebur, Xanthium strumarium), smartweed (ladysthumb smartweed, and hairy beggarticks (Bidens pilosa), were planted into a silt loam soil and treated preemergence with test chemicals formulated in a non-phytotoxic solvent mixture which included a surfactant.
(§2) At the same time, plants from these crop and weed species and also horseweed (Canada horseweed, Conyza canadensis), waterhemp_RES1, (ALS & Triazine resistant common waterhemp, Amaranthus rudis), and waterhemp_RES2, (ALS & HPPD resistant common waterhemp, Amaranthus rudis) were planted in pots containing Redi-Earth® planting medium (Scotts Company, 14111 Scottslawn Road, Marysville, Ohio 43041) comprising spaghnum peat moss, vermiculite, wetting agent and starter nutrients were treated with postemergence applications of test chemicals formulated in the same manner. Plants ranged in height from 2 to 18 cm for postemergence treatments (1- to 4-leaf stage). Treated plants and controls were maintained in a greenhouse for 14 to 21 days, after which time all species were compared to controls and visually evaluated. Plant response ratings, summarized in Table E, are based on a scale of 0 to 100 where 0 is no effect and 100 is complete control. A dash (-) response means no test result.

wild poinsettia = type: in vivo, Euphorbia heterophylla; conditions: for Poinsettia, Wild plant response rating: scale 0 to 100 (0 no effect, 100 complete control); for Plant response rating, Poinsettia, Wild: scale 0 to 100, 0 no effect, 100 complete control
From the text: as §1, §2

surinam grass = type: in vivo, Brachiaria decumbens; conditions: for Surinam Grass plant response rating: scale 0 to 100 (0 no effect, 100 complete control); for Plant response rating, Surinam Grass: scale 0 to 100, 0 no effect, 100 complete control
Method in brief: (§3)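 Test chemicals formulated in a non-phytotoxic solvent mixture containing a surfactant were applied preemergence to seeds in silt loam soil or postemergence to plants at the 1- to 4-leaf stage in potting mix. After 14 to 21 days in a greenhouse, injury was visually rated against controls on a 0-100 scale (0 = no effect, 100 = complete control).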

large (Lg) crabgrass = type: in vivo, Digitaria sanguinalis; conditions: for Crabgrass, Large plant response rating: scale 0 to 100 (0 no effect, 100 complete control); for Plant response rating, Crabgrass, Large: scale 0 to 100, 0 no effect, 100 complete control
From the text: as §1, §2

fall panicum = type: in vivo, Panicum dichotomiflorum; conditions: for Panicum, Fall plant response rating: scale 0 to 100 (0 no effect, 100 complete control); for Plant response rating, Panicum, Fall: scale 0 to 100, 0 no effect, 100 complete control
From the text: as §1, §2

goosegrass = type: in vivo, Eleusine indica; conditions: for Goosegrass plant response rating: scale 0 to 100 (0 no effect, 100 complete control); for Plant response rating, Goosegrass: scale 0 to 100, 0 no effect, 100 complete control
Method in brief: as §3

johnsongrass = type: in vivo, Sorghum halepense; conditions: for Johnsongrass plant response rating: scale 0 to 100 (0 no effect, 100 complete control); for Plant response rating, Johnsongrass: scale 0 to 100, 0 no effect, 100 complete control
Method in brief: as §3

ragweed = type: in vivo, Ambrosia elatior; conditions: for Ragweed plant response rating: scale 0 to 100 (0 no effect, 100 complete control); for Plant response rating, Ragweed: scale 0 to 100, 0 no effect, 100 complete control
From the text: as §1, §2

barnyardgrass = type: in vivo, Echinochloa crus-galli; conditions: for Barnyardgrass plant response rating: scale 0 to 100 (0 no effect, 100 complete control); for Plant response rating, Barnyardgrass: scale 0 to 100, 0 no effect, 100 complete control
Method in brief: as §3

dayflower = type: in vivo, Commelina virginica; conditions: for Dayflower, VA plant response rating: scale 0 to 100 (0 no effect, 100 complete control); for Plant response rating, Dayflower, VA: scale 0 to 100, 0 no effect, 100 complete control
From the text: as §1, §2

hairy beggarticks = type: in vivo, Bidens pilosa; conditions: for Beggarticks plant response rating: scale 0 to 100 (0 no effect, 100 complete control); for Plant response rating, Beggarticks: scale 0 to 100, 0 no effect, 100 complete control
Method in brief: as §3

In the case of `FC(F)(F)c1cnn(-c2ccccc2Oc2ncc(Cl)cn2)c1` [Compound 16], the “Lambsquarters plant response rating” value (lambsquarters; 16 g ai/ha) is reported as 50, the “Lambsquarters plant response rating” value (lambsquarters; 31 g ai/ha) is reported as 80 and the “Lambsquarters plant response rating” value (lambsquarters; 62 g ai/ha) is reported as 98. For the same compound, the “Plant response rating, Lambsquarters” value (lambsquarters; 125 g ai/ha) was 98, the “Plant response rating, Lambsquarters” value (lambsquarters; 250 g ai/ha) was 98 and the “Poinsettia, Wild plant response rating” value (wild poinsettia; 16 g ai/ha) was 0. For the same compound, the “Poinsettia, Wild plant response rating” value (wild poinsettia; 31 g ai/ha) was 0, the “Poinsettia, Wild plant response rating” value (wild poinsettia; 62 g ai/ha) was 50 and the “Plant response rating, Poinsettia, Wild” value (wild poinsettia; 125 g ai/ha) was 50. The “Plant response rating, Poinsettia, Wild” value (wild poinsettia; 250 g ai/ha) was 100, the “Surinam Grass plant response rating” value (surinam grass; 16 g ai/ha) was 0 and the “Surinam Grass plant response rating” value (surinam grass; 31 g ai/ha) was 0. For the same compound, the “Surinam Grass plant response rating” value (surinam grass; 62 g ai/ha) was 0, the “Plant response rating, Surinam Grass” value (surinam grass; 125 g ai/ha) was 30 and the “Plant response rating, Surinam Grass” value (surinam grass; 250 g ai/ha) was 50. The “Crabgrass, Large plant response rating” value (large (Lg) crabgrass; 16 g ai/ha) was 0, the “Crabgrass, Large plant response rating” value (large (Lg) crabgrass; 31 g ai/ha) was 0 and the “Crabgrass, Large plant response rating” value (large (Lg) crabgrass; 62 g ai/ha) was 65. For the same compound, the “Plant response rating, Crabgrass, Large” value (large (Lg) crabgrass; 125 g ai/ha) was 80, the “Plant response rating, Crabgrass, Large” value (large (Lg) crabgrass; 250 g ai/ha) was 100 and the “Panicum, Fall plant response rating” value (fall panicum; 16 g ai/ha) was 0. For the same compound, the “Panicum, Fall plant response rating” value (fall panicum; 31 g ai/ha) was 80, the “Panicum, Fall plant response rating” value (fall panicum; 62 g ai/ha) was 100 and the “Plant response rating, Panicum, Fall” value (fall panicum; 125 g ai/ha) was 100. The “Plant response rating, Panicum, Fall” value (fall panicum; 250 g ai/ha) was 100, the “Goosegrass plant response rating” value (goosegrass; 16 g ai/ha) was 0 and the “Goosegrass plant response rating” value (goosegrass; 31 g ai/ha) was 35. The “Goosegrass plant response rating” value (goosegrass; 62 g ai/ha) was 50, the “Plant response rating, Goosegrass” value (goosegrass; 125 g ai/ha) was 75 and the “Plant response rating, Goosegrass” value (goosegrass; 250 g ai/ha) was 95. For the same compound, the “Johnsongrass plant response rating” value (johnsongrass; 16 g ai/ha) was 0, the “Johnsongrass plant response rating” value (johnsongrass; 31 g ai/ha) was 0 and the “Johnsongrass plant response rating” value (johnsongrass; 62 g ai/ha) was 0. For the same compound, the “Plant response rating, Johnsongrass” value (johnsongrass; 125 g ai/ha) was 25, the “Plant response rating, Johnsongrass” value (johnsongrass; 250 g ai/ha) was 40 and the “Ragweed plant response rating” value (ragweed; 16 g ai/ha) was 0. For the same compound, the “Ragweed plant response rating” value (ragweed; 31 g ai/ha) was 0, the “Ragweed plant response rating” value (ragweed; 62 g ai/ha) was 0 and the “Plant response rating, Ragweed” value (ragweed; 125 g ai/ha) was 30. The “Plant response rating, Ragweed” value (ragweed; 250 g ai/ha) was 65, the “Barnyardgrass plant response rating” value (barnyardgrass; 16 g ai/ha, preemergence) was 0 and the “Barnyardgrass plant response rating” value (barnyardgrass; 31 g ai/ha, preemergence) was 0. For the same compound, the “Plant response rating, Barnyardgrass” value (barnyardgrass; Preemergence, 62 g ai/ha) was 0, the “Plant response rating, Barnyardgrass” value (barnyardgrass; preemergence, 125 g ai/ha) was 10 and the “Plant response rating, Barnyardgrass” value (barnyardgrass; preemergence, 250 g ai/ha) was 40. For the same compound, the “Dayflower, VA plant response rating” value (dayflower; 16 g ai/ha) was 0, the “Dayflower, VA plant response rating” value (dayflower; 31 g ai/ha) was 0 and the “Dayflower, VA plant response rating” value (dayflower; 62 g ai/ha) was 35. For the same compound, the “Plant response rating, Dayflower, VA” value (dayflower; 125 g ai/ha) was 70, the “Plant response rating, Dayflower, VA” value (dayflower; 250 g ai/ha) was 98 and the “Beggarticks plant response rating” value (hairy beggarticks; 16 g ai/ha, preemergence) was 0. For the same compound, the “Beggarticks plant response rating” value (hairy beggarticks; 31 g ai/ha, preemergence) was 0, the “Plant response rating, Beggarticks” value (hairy beggarticks; Preemergence, 62 g ai/ha) was 0 and the “Plant response rating, Beggarticks” value (hairy beggarticks; preemergence, 125 g ai/ha) was 0. For the same compound, the “Plant response rating, Beggarticks” value (hairy beggarticks; preemergence, 250 g ai/ha) was 0.

— patent US9695155B2, “Herbicidal substituted pyrimidinyloxy benzene compounds” (E. I. DU PONT DE NEMOURS AND COMPANY, priority 2013, dated 2017)
